From patent US20240166660A1, “KRAS G12C INHIBITORS” (BeiGene Switzerland GmbH, priority 2021, published 2024)

Target: KRAS (aa 1-169) G12C, C51S, C80L, C118S (Homo sapiens (Human), UniProt P01116, C118S/C51S/C80L/G12C)
Test: Biochemical functional assay: SOS1-mediated nucleotide exchange of GDP-loaded KRAS G12C, binding to GST-cRaf RBD, FRET readout
Conditions: 3 hrs pre-incubation with compound at 24° C., SOS1, GTPyS, inhibition of nucleotide exchange
How it was run: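 GDP-loaded His-tagged KRAS construct preincubated with compound 3 h at 24° C in 25 mM HEPES pH7.5, 10 mM MgCl2, 0.01% Triton X-100; SOS1 (aa 564-1049), GTPγS and GST-cRaf RBD added for 3 h, then anti-His Tb cryptate/anti-GST XL665 for 3 h. HTRF 665/620 ratio; IC50 by four-parameter logistic fit.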

Chain of KRAS (aa 1-169) G12C, C51S, C80L, C118S (P01116 other isoform, or with tags, fused parts or gaps G12C/C51S/C80L/C118S): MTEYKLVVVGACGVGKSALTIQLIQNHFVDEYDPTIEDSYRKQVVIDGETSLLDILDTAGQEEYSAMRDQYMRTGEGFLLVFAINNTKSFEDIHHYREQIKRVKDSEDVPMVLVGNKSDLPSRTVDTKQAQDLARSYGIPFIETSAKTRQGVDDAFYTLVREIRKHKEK

SMILES	IC50 [nM]
C=C(F)C(=O)N1CCN(c2nc(N3CC(N(C)C)C3)nc3cc(-c4c(Cl)c(C)cc5[nH]ncc45)c4ccoc4c23)C[C@@H]1CC#N [Compound B79, 2-((2S)-4-(4-(5-chloro-6-methyl-1H-indazol-4-yl)-7-(3-(dimethylamino)azetidin-1-yl)furo[2,3-f]quinazolin-9-yl)-1-(2-fluoroacryloyl)piperazin-2-yl)acetonitrile]	59
C=C(F)C(=O)N1CCN(c2nc(N3CC(CC#N)(N(C)C)C3)nc3cc(-c4cccc5cccc(Cl)c45)c4ccoc4c23)C[C@@H]1CC#N [Compound B80, (S)-2-(4-(4-(8-chloronaphthalen-1-yl)-7-(3-(cyanomethyl)-3-(dimethylamino)azetidin-1-yl)furo[2,3-f]quinazolin-9-yl)-1-(2-fluoroacryloyl)piperazin-2-yl)acetonitrile]	222
C=C(F)C(=O)N1CCN(c2nc(OC[C@@H]3CCCN3C)nc3cc(-c4cccc5c4CCCC5)c4c(c23)OCCC4)C[C@@H]1CC#N [Compound B81, 2-((S)-1-(2-fluoroacryloyl)-4-(8-(((S)-1-methylpyrrolidin-2-yl)methoxy)-5-(5,6,7,8-tetrahydronaphthalen-1-yl)-3,4-dihydro-2H-pyrano[2,3-f]quinazolin-10-yl)piperazin-2-yl)acetonitrile]	48
C=CC(=O)N1CCN(c2nc(OC[C@@H]3CCCN3C)nc3cc(-c4cccc5cccc(Cl)c45)c4c(c23)OCCC4)C[C@@H]1CC#N [Compound B82, 2-((S)-1-acryloyl-4-(5-(8-chloronaphthalen-1-yl)-8-(((S)-1-methylpyrrolidin-2-yl)methoxy)-3,4-dihydro-2H-pyrano[2,3-f]quinazolin-10-yl)piperazin-2-yl)acetonitrile]	6.2
C=CC(=O)N1CCN(c2nc(N3CC(N(C)C)C3)nc3cc(-c4ccccc4C(F)(F)F)c4ccoc4c23)CC1 [Compound B83, 1-(4-(7-(3-(dimethylamino)azetidin-1-yl)-4-(2-(trifluoromethyl)phenyl)furo[2,3-f]quinazolin-9-yl)piperazin-1-yl)prop-2-en-1-one]	1700
C=C(F)C(=O)N1CCN(c2nc(OC3CCCN(C)C3)nc3cc(-c4cccc5cccc(Cl)c45)c4c(c23)OCCC4)C[C@@H]1CC#N (stereo partly drawn) [Compound B84, 2-((2S)-4-(5-(8-chloronaphthalen-1-yl)-8-((1-methylpiperidin-3-yl)oxy)-3,4-dihydro-2H-pyrano[2,3-f]quinazolin-10-yl)-1-(2-fluoroacryloyl)piperazin-2-yl)acetonitrile]	483
C=C(F)C(=O)N1CCN(c2nc(OC(C)CN(C)C)nc3cc(-c4cccc5cccc(Cl)c45)c4c(c23)OCCC4)C[C@@H]1CC#N (stereo partly drawn) [Compound B85, 2-((2S)-4-(5-(8-chloronaphthalen-1-yl)-8-((1-(dimethylamino)propan-2-yl)oxy)-3,4-dihydro-2H-pyrano[2,3-f]quinazolin-10-yl)-1-(2-fluoroacryloyl)piperazin-2-yl)acetonitrile]	89
C=C(F)C(=O)N1CCN(c2nc(N3CC(COC)(N(C)C)C3)nc3cc(-c4cccc5cccc(Cl)c45)c4c(c23)OCCC4)C[C@@H]1CC#N [Compound B86, (S)-2-(4-(5-(8-chloronaphthalen-1-yl)-8-(3-(dimethylamino)-3-(methoxymethyl)azetidin-1-yl)-3,4-dihydro-2H-pyrano[2,3-f]quinazolin-10-yl)-1-(2-fluoroacryloyl)piperazin-2-yl)acetonitrile]	19
C=C(F)C(=O)N1CCN(c2nc(OC[C@@H]3CCCN3C)nc3cc(-c4cccc(C(F)(F)F)c4)c4ccoc4c23)C[C@@H]1CC#N [Compound B87, 2-((S)-1-(2-fluoroacryloyl)-4-(7-(((S)-1-methylpyrrolidin-2-yl)methoxy)-4-(3-(trifluoromethyl)phenyl)furo[2,3-f]quinazolin-9-yl)piperazin-2-yl)acetonitrile]	1520
C=C(F)C(=O)N1CCN(c2nc(N3CC(CF)(N(C)C)C3)nc3cc(-c4cccc5cccc(Cl)c45)c4c(c23)OCCC4)C[C@@H]1CC#N [Compound B88, (S)-2-(4-(5-(8-chloronaphthalen-1-yl)-8-(3-(dimethylamino)-3-(fluoromethyl)azetidin-1-yl)-3,4-dihydro-2H-pyrano[2,3-f]quinazolin-10-yl)-1-(2-fluoroacryloyl)piperazin-2-yl)acetonitrile]	92
C=C(F)C(=O)N1CCN(c2nc(OC[C@@H]3CCCN3C)nc3cc(-c4ccc(C(F)(F)F)cc4)c4ccoc4c23)C[C@@H]1CC#N [Compound B89, 2-((S)-1-(2-fluoroacryloyl)-4-(7-(((S)-1-methylpyrrolidin-2-yl)methoxy)-4-(4-(trifluoromethyl)phenyl)furo[2,3-f]quinazolin-9-yl)piperazin-2-yl)acetonitrile]	691
C=C(F)C(=O)N1CCN(c2nc(N3CC(CC#N)(N(C)C)C3)nc3cc(-c4cccc5cccc(Cl)c45)c4c(c23)OCCC4)C[C@@H]1CC#N [Compound B90, (S)-2-(1-(5-(8-chloronaphthalen-1-yl)-10-(3-(cyanomethyl)-4-(2-fluoroacryloyl)piperazin-1-yl)-3,4-dihydro-2H-pyrano[2,3-f]quinazolin-8-yl)-3-(dimethylamino)azetidin-3-yl)acetonitrile]	37
C=C(F)C(=O)N1CCN(c2nc(OC[C@@H]3CCCN3C)nc3cc(-c4ccc(Cl)c5ccccc45)c4c(c23)OCCC4)C[C@@H]1CC#N [Compound B98, 2-((S)-4-(5-(4-chloronaphthalen-1-yl)-8-(((S)-1-methylpyrrolidin-2-yl)methoxy)-3,4-dihydro-2H-pyrano[2,3-f]quinazolin-10-yl)-1-(2-fluoroacryloyl)piperazin-2-yl)acetonitrile]	462
C=C(F)C(=O)N1CCN(c2nc(OC[C@@H]3CCCN3C)nc3cc(-c4ccc(F)c5ccccc45)c4c(c23)OCCC4)C[C@@H]1CC#N [Compound B99, 2-((S)-1-(2-fluoroacryloyl)-4-(5-(4-fluoronaphthalen-1-yl)-8-(((S)-1-methylpyrrolidin-2-yl)methoxy)-3,4-dihydro-2H-pyrano[2,3-f]quinazolin-10-yl)piperazin-2-yl)acetonitrile]	152
C=C(F)C(=O)N1CCN(c2nc(N3CC(N(C)C)C3)nc3cc(-c4cccc5cccc(Cl)c45)c4c(c23)OCCC4)C[C@@H]1CC#N [Compound B100, (S)-2-(4-(5-(8-chloronaphthalen-1-yl)-8-(3-(dimethylamino)azetidin-1-yl)-3,4-dihydro-2H-pyrano[2,3-f]quinazolin-10-yl)-1-(2-fluoroacryloyl)piperazin-2-yl)acetonitrile]	18
C=C(F)C(=O)N1CCN(c2nc(OC[C@@H]3CCCN3C)nc3cc(-c4cccc(Cl)c4C(F)(F)F)c4c(c23)OCCC4)C[C@@H]1CC#N [Compound B103, 2-((S)-4-(5-(3-chloro-2-(trifluoromethyl)phenyl)-8-(((S)-1-methylpyrrolidin-2-yl)methoxy)-3,4-dihydro-2H-pyrano[2,3-f]quinazolin-10-yl)-1-(2-fluoroacryloyl)piperazin-2-yl)acetonitrile]	6.95
